Several values for one entry are separate records, joined by “and”; a condition that tells them apart may be missing. Equal entries are not always repeated. Entries after “also recorded” stand apart in the source; their conditions may differ.
Legend:
[1] = Maximum tolerable concentration for chick embryo fibroblasts; assay type: cell-based; conditions: chicken
[2] = system: lymphocytes; assay type: in vivo, human
[3] = Allergizing effect, guinea pigs; assay type: in vivo; conditions: subcutaneous injections and repeated skin applications
[4] = Long-term per os toxicity, dogs; assay type: in vivo; conditions: per os 25 mg/kg over 6 months
[5] = system: peritoneal macrophages; test: Absorbing capacity of mouse peritoneal macrophages (neutral red); assay type: in vivo, mice; set-up: Absorbing Capacity, percent of control: concentration or dose not given beside the values
[6] = system: stem cells; test: Inactivation of stem cells with allogenic lymphocytes (graft versus host, spleen endocolonies); assay type: in vivo, mice
[7] = Physical properties of the compound (heating, solubility, hygroscopicity, pH of solution); assay type: physicochemical
Description: The compound according to the invention is a crystalline powder, having a colour from white with tints of green-yellow to light-yellow with green hues; a bitter in taste, odourless. The melting point of the compound is not characteristic.
The solution containing 1 g of the compound in 1450 ml of water at 25° C. has pH of 4.37 (potentiometrically).

[8] = Localized irritant action in oral administration (hystological tests); assay type: in vivo
[9] = Effect on thermal skin lesion; conditions: in vivo
[10] = clinical trials
[11] = system: influenza A/B virus; test: Clinical trial against influenza A/B virus infection; assay type: in vivo, human; conditions: hydrochloride monohydrate
Description: The clinical checking of the preparation was performed in comparison to control groups o patients which were taken a symptomatic treatment.

[12] = system: interferon; test: Interferon induction in mouse blood serum; assay type: in vivo, mice
[13] = Allergizing effect, rabbits; assay type: in vivo; conditions: subcutaneous injections and repeated skin applications
[14] = system: sarcoma-45; test: Development of grafted sarcoma-45; assay type: in vivo, rats; conditions: for Sarcoma growth: 125 mg/kg daily during 5 days, p < 0.05
Excerpt: Control animals were given only a starch solution. The dynamic development of the tumor was monitored by intravital measurements of its mass.

[15] = system: interferon; test: Interferon induction in human blood serum; assay type: in vivo
[16] = Long-term per os toxicity, guinea pigs; assay type: in vivo; conditions: per os 100 to 125 mg/kg over 3 months
[17] = Long-term per os toxicity, rats; assay type: in vivo; conditions: per os 100 to 125 mg/kg during 6 months
[18] = system: herpes simplex virus from antigen-type I L2 -strain; test: Preventive action in generalized mouse herpes; set-up: species or system mice; conditions: in vivo
[19] = Long-term per os toxicity, rabbits; assay type: in vivo; conditions: per os 50 mg/kg during 2 months
[20] = system: influenza viruses; test: Virucidal action on influenza viruses
[21] = system: influenza A virus (Bethezda) 63 (H2 N2), A (Aichi) (H3 N2); test: Preventive action in mouse influenzal pneumonia; assay type: in vivo, mice; conditions: for The decrease of lethality: P <0.01; for Lethality: absolute animal number: dead/total
Description: Its preventive effect was studied on a mouse influenzal pneumonia induced by infecting the animals intranasally with influenza A virus (Bethezda) 63 (H2 N2), A (Aichi) (H3 N2) and on a generalized mouse herpes, induced by intranasal infection of them with herpes simplex virus from antigen-type I L2 -strain.
A single administration of the preparation per os in the dose of 30 mg/kg 24 hours prior to infection prevents the death of 40% of animals suffering from a generalized herpetic infection.

[22] = system: antibody-producing cells; test: Antibody-producing cells in the spleen of mice immunized with sheep erythrocytes; assay type: in vivo; set-up: immune response against the control: concentration or dose not given beside the values
[23] = single 100 mg and 300 mg daily per os
[24] = 1 day after single administration
[25] = 2 day after single administration
[26] = patients with influenza virus infection
[27] = 31.2 mg/kg per os 24 and 6 hours before infecting
[28] = 62.5 mg/kg per os 24 and 6 hours before infecting
[29] = 125 mg/kg per os 24 and 6 hours before infecting

Structure (SMILES): CCOC(=O)c1c(CSc2ccccc2)n(C)c2cc(Br)c(O)c(CN(C)C)c12.Cl.O [preparation of the invention, ethyl 6-bromo-5-hydroxy-4-dimethylaminomethyl-1-methyl-2-phenylthiomethylindole-3-carboxylate hydrochloride monohydrate]
- MNTC [1]: 20 µg/mL
- bonding receptors with the outer lymphocyte membrane [2, 23]: leads to changes in bonding receptors with the outer lymphocyte membrane
- counts of T-populations [2, 23]: fails to change the counts of T-populations
- persistence of changes in bonding receptors ([2]; time of observation): 14 days
- effect of vaccination on the nature of changes of bonding receptors ([2]; vaccination 24 hours after administering): no effect on the nature of changes of bonding receptors
- allergizing action [3]: did not exert an allergizing action
- pathological changes [4]: did not cause any pathological changes
- Absorbing Capacity of Peritoneal Macrophages [5, 24]: 27.7 ± 3.5 mg/6 × 10^6 cells
- Absorbing Capacity, percent of control [5, 24]: 125 ± 17%
- Absorbing Capacity of Peritoneal Macrophages [5, 25]: 33.6 ± 4.7 mg/6 × 10^6 cells
- Absorbing Capacity, percent of control [5, 25]: 147 ± 20.6%
- Absorbing Capacity of Peritoneal Macrophages ([5]; 3 day after single administration): 37.4 ± 3.7 mg/6 × 10^6 cells
- absorbing capacity of macrophages ([5]; by 2-3 days after a single administration, p<0.05): 164±13%
- stimulation of absorbing capacity of macrophages ([5]; in vivo): stimulates the absorbing capacity of macrophages to a greater extent than administration of levamisole
- effect on counts of macrophages washed off the peritoneal cavity ([5]; mouse, in vivo): no effect on counts of macrophages
- The counts of spleen endocolonies (M ± m) ([6]; 1.25 × 10^6 lymphocytes): 2.5 ± 0.4
- The counts of spleen endocolonies (M ± m) ([6]; 2.5 × 10^6 lymphocytes): 1.6 ± 0.2
- The counts of spleen endocolonies (M ± m) ([6]; 5.0 × 10^6 lymphocytes): 0.3 ± 0.1
- effect on yield of spleen colonies under graft versus host conditions ([6]; preparation 100 mg per 1 kg orally, levamisole 5 mg per 1 kg, hydrochloride monohydrate): reduces both observed deviations as compared to control values if the concentration of introduced cells is not the highest; also recorded: normalizes the proliferative activity of target cells and their ability of producing a vital colony
- hygroscopicity [7]: non-hydroscopic
- pH of solution ([7]; 1 g of the compound in 1450 ml of water at 25° C., potentiometrically): 4.37
- behaviour when heated ([7]; heated for 3 hours at 110° to 120° C.): looses the molecule of H2 O
- solubility in water, methanol, ethanol ([7]; water, methanol, ethanol): poorly soluble
- localized irritant action [8]: no localized irritant action
- effect on a thermal skin lesion [9]: exert a thermoprotective action and reduce a thermal skin lesion
- toxicity / tolerability in patients [10]: non-toxic, is well tolerated by patients
- therapeutical efficacy against influenza A/B virus infection ([11]; human, in vivo, po): has the therapeutical effect on influenza A/B virus infections; also recorded: shortening the febrile period, intoxication and catarrhal conditions as well as by shortening the illness duration
- frequency of chronic disease exacerbations [11, 26]: considerably decreases the frequency of chronic disease exacerbations; also recorded: decreased considerably the frequency of chronic disease exacerbations
- postinfluenzal complications [11, 26]: prevents from post-influenzal complications; also recorded: prevented the development of postinfluenzal complications
- interferon induction on repeated administering ([12]; mice, repeated administering): a depressed reactivity state condition occurs in the animals
- Interferon titer ([12]; per os, 62.5 mg/kg, after 16 h): 320-640 U/ml
- Interferon titer ([12]; per os, 62.5 mg/kg, after 24 h): 640 U/ml
- Interferon titer ([12]; per os, 62.5 mg/kg, after 48 h): 160 U/ml
- Interferon titer ([12]; per os, 62.5 mg/kg, after 72 h): 40 U/ml
- Interferon titer ([12]; per os, 125 mg/kg, after 16 h): 640 U/ml
- Interferon titer ([12]; per os, 125 mg/kg, after 24 h): 320-640 U/ml
- Interferon titer ([12]; per os, 125 mg/kg, after 48 h): 640 U/ml
- Interferon titer ([12]; per os, 125 mg/kg, after 72 h): 160 U/ml
- Interferon titer ([12]; per os, 250 mg/kg, after 16 h): 320-540 U/ml
- Interferon titer ([12]; per os, 250 mg/kg, after 24 h): 640-1280 U/ml
- Interferon titer ([12]; per os, 250 mg/kg, after 48 h): 320 U/ml
- Interferon titer ([12]; per os, 250 mg/kg, after 72 h): 160 U/ml
- high interferon titers in mouse blood serum ([12]; per os, 250 to 62.5 mg/kg, 16 hours, persisted up to 48 hours): 640 U/ml
- allergizing action [13]: did not exert an allergizing action
- Sarcoma growth ([14]; 1 month 10 days after grafting): 21.0 ± 3.9 cm^3
- Sarcoma growth ([14]; 1 month 16 days after grafting): 38.0 ± 7.5 cm^3
- Sarcoma growth ([14]; 1 month after grafting): 8.2 ± 1.4 cm^3
- Sarcoma growth ([14]; 2 months after grafting): 39.9 ± 9.7 cm^3
- effect on development of the tumor ([14]; 12 month period of observation, hydrochloride monohydrate): inhibition of the development of tumor was found; also recorded: inhibitory effect on the development of a massive tumor
- volunteers with interferon induction ([15]; 3-times administration (300 mg), all 12): 100%
- Interferon titer ([15]; 3 times per day (300 mg)): 160-320 U/ml
- The number of positive reactions ([15]; 3 times per day (300 mg), 12 men): 12
- The number of positive reactions ([15]; 6 times per day during 2 days (600 mg), 12 men): 12
- Interferon titer ([15]; during 2 days (600 mg)): 40-80 U/ml
- development of hyporeactivity on increase in dose and duration ([15]; increase in dose and duration of administration): development of hyporeactivity in human beings
- Interferon titer ([15]; single administration (100 mg)): 40-80 U/ml
- The number of positive reactions ([15]; single administration per day (100 mg), 13 men): 8
- volunteers with interferon induction ([15]; single per os 100 mg, 8 out of 13): 61.5%
- pathological changes [16]: did not cause any pathological changes
- pathological changes [17]: did not cause any pathological changes
- prevention of death [18]: 40%
- Lethality ([18]; hydrochloride monohydrate): 60% and 75%
- Lethality: absolute animal number ([18]; hydrochloride monohydrate): 12/20 and 15/20
- The decrease of lethality ([18]; hydrochloride monohydrate): 40% and 25%
- pathological changes [19]: did not cause any pathological changes
- virucidal action on influenza viruses [20]: No virucidal action
- Lethality [21, 27]: 30%
- The decrease of lethality [21, 27]: 40%
- Lethality: absolute animal number [21, 27]: 12/40
- lowering of lethality as compared to control ([21]; 31.2 mg/kg to 125 mg/kg per os 24 and 6 hours before infecting): 40-50%
- Lethality [21, 28]: 20%
- The decrease of lethality [21, 28]: 50%
- Lethality: absolute animal number [21, 28]: 8/40
- Lethality [21, 29]: 20%
- The decrease of lethality [21, 29]: 50%
- Lethality: absolute animal number [21, 29]: 8/40
- immunopotentiating effect on tumor-carrier animals ([22]; 7-17 day of tumor development, single (3 days prior to immunization) or 5-times daily): immunopotentiating effect on tumor-carrier animals
- Antibody-producing cells in spleen (% of control) ([22]; intact mice, a single use): 246 ± 6.0%
- Antibody-producing cells in spleen (% of control) ([22]; intact mice, during 3 days, daily): 141 ± 13%
- Antibody-producing cells in spleen (% of control) ([22]; intact mice, during 5 days, daily): 192 ± 14.0%
- immunostimulating effect on irradiated animals ([22]; irradiated animals): pronounced immunostimulating effect
- immune response against the control ([22]; irradiated animals, administered 3 days prior to irradiation): 230%
- stimulation of antibody genesis, compared with reference standards ([22]; mice, intact and irradiated): superior over reference standards--levamisole and a double-stranded RF2 phage RNA
- Antibody-producing cells in spleen (% of control) ([22]; totally irradiated (2 Gr.), 5 times in 3 days): 96 ± 20.0%
- Antibody-producing cells in spleen (% of control) ([22]; totally irradiated (2 Gr.), a single use): 230 ± 12.0%
- Antibody-producing cells in spleen (% of control) ([22]; totally irradiated (2 Gr.), during 3 days, daily): 129 ± 19%
- Antibody-producing cells in spleen (% of control) ([22]; totally irradiated (2 Gr.), during 5 days, daily): 181 ± 11.3%
- immunopotentiating effect on totally irradiated tumor-carrier animals ([22]; totally irradiated tumor-carriers): pronounced immunopotentiating effect
- Antibody-producing cells in spleen (% of control) ([22]; totally irradiated tumor-carriers (2 Gr.), 5 times in 3 days): 250 ± 21.5%
- Antibody-producing cells in spleen (% of control) ([22]; totally irradiated tumor-carriers (2 Gr.), during 3 days, daily): 121 ± 25%
- Antibody-producing cells in spleen (% of control) ([22]; totally irradiated tumor-carriers (2 Gr.), during 5 days, daily): 128 ± 28.5%
- Antibody-producing cells in spleen (% of control) ([22]; tumor-carriers, 5 times in 3 days): 110 ± 11.0%
- Antibody-producing cells in spleen (% of control) ([22]; tumor-carriers, a single use): 211 ± 10.0%
- Antibody-producing cells in spleen (% of control) ([22]; tumor-carriers, during 3 days, daily): 99 ± 19%

Source: patent US5198552A, “Indole derivative having antiviral, interferon-inducing and immunomodulatory effects” (priority 1991, dated 1993)
